Measurements taken from paper PMC12836451, “Cyclic Peptide–Polymer Conjugate Nanotubes for Delivery of SN‐38 in Treatment of Colorectal Cancer Model” (Advanced Healthcare Materials, 2025).
Where a name gives a salt, the structure may show the parent alone. Read-outs that look alike come from different tables or passages of the source.

What was measured:
[1] = cited from earlier work
Excerpt: Despite significant scientific advances in recent decades, cancer remains one of the most formidable challenges for modern medicine. The rising rates of colorectal cancer (CRC) diagnoses, particularly amongst younger people, exemplify the new complexities faced. Despite efforts to promote early detection and fast onset of treatment, the prognosis for CRC remains grim, ranking as one of the deadliest malignancies worldwide.

[2] = test system: CT26 spheroids; test: 3D spheroid growth assay; type: cell-based, murine; conditions: 10 µM, control grew by over 300 µm
Procedure: CT26 cells were harvested and seeded in a non‐tissue culture‐treated, U‐bottom‐shaped 96‐well plates at a density of 500 cells per well (200 µL media per well), before centrifugation at 500 xG for 10 minutes. The plate incubated and the spheroids allowed to form over a period of days (typically 5–8). […] Non‐treated/Control spheroids received fresh media.

[3] = Pharmacokinetics study in mice (plasma, LC-MS, non-compartmental); conditions: non-tumor female BALB/c mice, i.v., irinotecan 15 mg kg−1 or SN-38 nanotubes 10 mg kg−1 drug, SN-38 = prodrug and hydrolysed forms combined
[4] = test system: CT26 cells; test: MTS cell viability assay; type: cell-based, murine; conditions: Mus musculus, CT26, 48 h
Procedure: Cells were typically grown to 70–80% confluence before passaging, and cells were not used past 20 passages total.
The wells were then treated with 20 µL of MTS reagent (Promega, CellTiter 96 AQeuous One Solution Cell Proliferation Assay) for 4 h, before UV absorbance reading on Biotek Cytation 3 Plate reader (490 nm). The relative cell viability was determined by comparison to untreated cells or cells with DMSO or EtOH at a range of concentrations.

[5] = test system: CT26 xenograft; conditions: CT26 xenograft mice, three i.v. doses

## CCc1c2c(nc3ccc(OC(=O)N4CCC(N5CCCCC5)CC4)cc13)-c1cc3c(c(=O)n1C2)COC(=O)[C@]3(O)CC [Irinotecan, irinotecan hydrochloride]
[1]
  reduction of potency compared to SN-38: 100–1000 fold
[2]
  increase of spheroid diameter over 5 days: 40 µm
[3]
  C max: 29.6 µM
[4]; n = 3, read-out: concentration required to achieve more than 50% cell death
  IC50: > 10000 nM
[5]
  tolerability (body weight, welfare scoring): well tolerated

## CCc1c2c(nc3ccc(O)cc13)-c1cc3c(c(=O)n1C2)COC(=O)[C@]3(O)CC [SN-38, 7‐ethyl‐10‐hydroxycamptothecin]
[1]; reason for not testing in vivo
  aqueous solubility: poor aqueous solubility
[4]; concentrations are SN-38 concentration, n = 3, read-out: IC50
  IC50: ~200 nM
